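48-hour exposure; five concentrations; linearly interpolated endpoints. The concentration for full growth arrest is given as TGI.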
How the values were obtained:
Test in all cases: NCI-60 cell line screen, 48 h
786-0 renal = tested on: 786-0 renal
HL-60(TB) leukemia = tested on: HL-60(TB) leukemia
LOX IMVI melanoma = tested on: LOX IMVI melanoma
SK-MEL-2 melanoma = tested on: SK-MEL-2 melanoma
HCT-116 colon = tested on: HCT-116 colon
OVCAR-4 ovarian = tested on: OVCAR-4 ovarian
NCI-H23 lung = tested on: NCI-H23 lung
CCRF-CEM leukemia = tested on: CCRF-CEM leukemia
NCI-H460 lung = tested on: NCI-H460 lung
SF-268 CNS = tested on: SF-268 CNS
MALME-3M melanoma = tested on: MALME-3M melanoma
HT29 colon = tested on: HT29 colon
NCI-H522 lung = tested on: NCI-H522 lung
KM12 colon = tested on: KM12 colon
OVCAR-8 ovarian = tested on: OVCAR-8 ovarian
HOP-92 NSCLC = tested on: HOP-92 NSCLC
MCF7 breast = tested on: MCF7 breast
NCI/ADR-RES ovarian = tested on: NCI/ADR-RES ovarian

| Compound | TGI (786-0 renal) [µM] | TGI (HL-60(TB) leukemia) [µM] | TGI (LOX IMVI melanoma) [µM] | TGI (SK-MEL-2 melanoma) [µM] | TGI (HCT-116 colon) [µM] | TGI (OVCAR-4 ovarian) [µM] | TGI (NCI-H23 lung) [µM] | TGI (CCRF-CEM leukemia) [µM] | TGI (NCI-H460 lung) [µM] | TGI (SF-268 CNS) [µM] | TGI (MALME-3M melanoma) [µM] | TGI (HT29 colon) [µM] | TGI (NCI-H522 lung) [µM] | TGI (KM12 colon) [µM] | TGI (OVCAR-8 ovarian) [µM] | TGI (HOP-92 NSCLC) [µM] | TGI (MCF7 breast) [µM] | TGI (NCI/ADR-RES ovarian) [µM] |
| --- | --- | --- | --- | --- | --- | --- | --- | --- | --- | --- | --- | --- | --- | --- | --- | --- | --- | --- |
| C/C(CC(=O)Nc1ccc(Cl)c(Cl)c1)=N/NC(=O)C[n+]1ccccc1 | > 100 | > 100 | 37.1 | > 100 | > 100 | > 100 | > 100 | > 100 | > 100 | > 100 | > 100 | > 100 | > 100 | > 100 | > 100 | > 100 | – | – |
| COC(=O)c1ccc(OCc2ccc3nc(OC)c(OC)nc3c2)cc1 | > 100 | > 100 | > 100 | > 100 | > 100 | > 100 | > 100 | > 100 | > 100 | > 100 | > 100 | > 100 | > 100 | > 100 | > 100 | – | – | – |
| COc1ccc(N2C(=O)C3c4[nH]c5ccc(OC)cc5c4C4CCC(C(C)(C)C)CC4C3C2=O)cc1 (stereo not drawn) | 66.1 | > 100 | > 100 | 70.4 | 26.1 | 43.6 | 80.8 | > 100 | > 100 | > 100 | 58 | > 100 | 89.3 | > 100 | > 100 | 36.4 | – | – |
| O=C(O)/C=C/n1c2ccccc2c(=O)c2ccccc21 | > 100 | > 100 | > 100 | > 100 | > 100 | > 100 | > 100 | > 100 | > 100 | > 100 | > 100 | > 100 | > 100 | > 100 | > 100 | – | – | – |
| CNC(=O)CN(CC(=O)NC)C(=O)NC | > 100 | > 100 | > 100 | > 100 | – | > 100 | > 100 | > 100 | – | > 100 | > 100 | > 100 | > 100 | > 100 | > 100 | > 100 | – | – |
| CC(=O)c1cccc(NC(=O)/C(=N\NC(C)(C)C)c2c(O)c3ccccc3oc2=O)c1 | > 100 | > 100 | > 100 | > 100 | > 100 | > 100 | > 100 | > 100 | > 100 | > 100 | > 100 | > 100 | > 100 | > 100 | > 100 | > 100 | – | – |
| CC1(C)COC(C23C4C5C2C2C3C4C52I)=N1 (stereo not drawn) | > 100 | – | – | – | – | > 100 | > 100 | > 100 | > 100 | > 100 | > 100 | > 100 | – | – | > 100 | > 100 | – | – |
| CCCN(CCCCC(NC(C)=O)C(=O)NCc1ccccc1)C(=O)N(C)N=O (stereo not drawn) | > 100 | – | > 100 | > 100 | > 100 | > 100 | > 100 | > 100 | > 100 | > 100 | > 100 | > 100 | > 100 | > 100 | > 100 | > 100 | – | – |
| C=CCCC(OCOCCOC)c1cc(C)c(O[Si](C)(C)C(C)(C)C)c(C)c1 (stereo not drawn) | 28.1 | 19.5 | 27.6 | 30.8 | – | – | 31.5 | 30.6 | 32.1 | 34.1 | 41.4 | – | 25.4 | 29.3 | 39.8 | – | – | – |
| COc1ccc2c(c1)c(=O)c1ccccc1n2/C=C/C(=O)O | > 100 | > 66.6 | > 65.6 | > 100 | > 100 | > 100 | > 100 | > 67.8 | > 100 | > 100 | > 100 | > 100 | > 100 | > 100 | > 100 | > 100 | – | – |
| COc1ccc(N2C(=O)C3c4[nH]c5ccccc5c4C4CCCCCCCCCCC4C3C2=O)cc1 (stereo not drawn) | 8.17 | 68.2 | > 46.6 | > 100 | 15.6 | 65.8 | > 33.1 | > 43.7 | 19.5 | > 30.5 | > 47.2 | 18.9 | > 49.1 | > 57.3 | 9.61 | 45.2 | – | – |
| CC(=O)O[C@H]1C(=O)[C@@]2(C)[C@H]([C@H](OC(=O)c3ccccc3)[C@]3(O)C[C@H](OC(=O)[C@H](OC(=O)OCCC(O)CO)[C@@H](NC(=O)c4ccccc4)c4ccccc4)C(C)=C1C3(C)C)[C@]1(OC(C)=O)CO[C@@H]1C[C@@H]2O (stereo partly drawn) | 33 | < 0.01 | 22 | > 100 | 11.3 | > 100 | > 37 | 12.2 | 19 | > 56.9 | – | > 100 | < 0.01 | 13.1 | > 53 | 61.6 | 14.1 | > 43.4 |
| COc1cccc2c1CCc1ccccc1CC2=O | > 100 | > 100 | > 100 | > 100 | > 100 | > 100 | > 100 | > 100 | > 100 | > 100 | > 100 | > 100 | > 100 | > 100 | > 100 | > 100 | – | – |
| CCN1CCC(O)(c2ccc(C)cc2)C(C(=O)c2ccc(C)cc2)C1 (stereo not drawn) | 26.6 | 47.7 | > 61.2 | > 100 | 30.3 | 50.1 | > 55.1 | 56 | > 81.1 | > 71.8 | 35.1 | 36.9 | 3.44 | > 91.9 | 49.9 | 40.1 | – | – |
| C/C(=N\NS(=O)(=O)c1ccc(C)cc1)C(CN1CCOCC1)C(c1ccccc1)c1c(O)c2ccccc2oc1=O (stereo not drawn) | > 100 | 76.1 | > 100 | > 100 | > 100 | > 100 | > 100 | > 100 | > 100 | > 100 | > 100 | > 100 | > 100 | > 100 | > 100 | > 100 | – | – |
| COc1cc(C2=NN(C)C(c3ccc([N+](=O)[O-])o3)C2)cc(OC)c1OC (stereo not drawn) | 42.7 | > 100 | > 100 | > 100 | > 100 | > 100 | > 100 | 72 | > 100 | > 100 | > 100 | > 100 | > 100 | > 100 | > 100 | > 100 | – | – |
| COc1c(Cl)c2c(c(OC)c1OC)-c1ccc(OC)c(=O)c(Cl)c1C(NC(C)=O)CC2 (stereo not drawn) | > 33.8 | 2.77 | 5.87 | 7.87 | 0.322 | > 100 | – | > 33.8 | 1.34 | 3.57 | > 100 | – | 0.468 | > 100 | – | 13.8 | – | – |
| Cc1nc2c(n1CCO)C(=O)c1ccccc1C2=O | > 100 | 54.2 | > 100 | 53 | 43 | 99 | 30.8 | > 100 | > 100 | > 100 | 24.2 | > 100 | 27.6 | > 100 | > 100 | – | – | – |
| O=S1(=O)OCCOS(=O)(=O)C1I | > 100 | > 100 | – | > 100 | > 100 | > 100 | > 100 | > 100 | – | > 100 | > 100 | > 100 | > 100 | > 100 | > 100 | > 100 | – | – |
| O=C1CCCCC1CN1CCCC1 (stereo not drawn) | > 100 | – | > 100 | > 100 | > 100 | > 100 | > 100 | > 100 | > 100 | > 100 | – | > 100 | 0.521 | > 100 | > 100 | – | – | – |
| CC1=NN(c2ccccc2)C(=O)C1=C1SCCS1 | > 100 | > 58.9 | > 63.4 | > 100 | > 64.6 | > 100 | > 100 | > 65.5 | > 100 | > 100 | > 100 | > 100 | 97.1 | > 100 | > 100 | > 85.8 | – | – |
| CN(C)c1ccc(-c2cc(=O)c3cc4c(cc3[nH]2)OCO4)cc1 | > 100 | > 100 | > 100 | > 100 | > 100 | > 100 | > 100 | > 100 | > 100 | > 100 | > 100 | > 100 | – | – | > 100 | – | – | – |
| COc1ccc(C[C@@H]2Cc3cc(OC)c(OC)cc3CN2C)cc1 | > 100 | – | – | > 100 | – | > 100 | > 100 | > 100 | > 100 | > 100 | > 100 | > 100 | > 100 | > 100 | > 100 | – | – | – |

Reference: PubChem BioAssay (NCI)
